The values that follow come from publication PMC11073612 (Nature structural & molecular biology, 2022).

“Also recorded” adds a separate entry of the source. Where no end group is shown, it is not given here.

For one test, the system named is SSTR2. As to the kind of experiment: BRET-based G protein activation assay at SSTR2. In kind it is cell-based. The settings on record: HEK-293S, 10 min after ligand, n=3 biological replicates.
Another test relates to SSTR1. As to the kind of experiment: BRET-based Gi3 activation assay at SSTR1. The format is cell-based. The note with it: HEK-293S, 10 min after ligand, n=3 biological replicates.
The subject of another test is SSTR3. As to the kind of experiment: BRET-based Gi3 activation assay at SSTR3. The settings on record: HEK-293S, 10 min after ligand, n=3 biological replicates. The format is cell-based.
In the next test the test system is SSTR4. As to the kind of experiment: BRET-based Gi3 activation assay at SSTR4. The note with it: HEK-293S, 10 min after ligand, n=3 biological replicates. The format is cell-based.
For the next test, the system named is SSTR5. As to the kind of experiment: BRET-based Gi3 activation assay at SSTR5. The format is cell-based. The note with it: HEK-293S, 10 min after ligand, n=3 biological replicates.
Test [1] deals with SSTR2 R184 to alanine mutant. As to the kind of experiment: BRET-based Gi3 activation assay, SSTR2 ECL2 mutant R184 to alanine. The format is cell-based. The note with it: HEK-293S.
The subject of test [2] is SSTR2 R184 to proline mutant. As to the kind of experiment: BRET-based Gi3 activation assay, SSTR2 ECL2 mutant R184 to proline. In kind it is cell-based. The note with it: HEK-293S.
For another test, the system named is SSTR2 Q187M. As to the kind of experiment: BRET-based Gi3 activation assay, SSTR2 Q187M. The format is cell-based. The note with it: HEK-293S, n=3 biological replicates.
Test [3] deals with chimeric constructs of SSTR2 (ECL swaps). As to the kind of experiment: BRET-based Gi3 activation assay, SSTR2 ECL2/ECL3 chimeras. The format is cell-based. The settings on record: HEK-293S, n=3; for ligand recognition, effect of ECL swaps: nearly all ECL2/ECL3 swaps.
A further test has as its system SSTR2 N276^6.55Q. As to the kind of experiment: BRET-based Gi3 activation assay, SSTR2 N276Q. The format is cell-based. The settings on record: HEK-293S.
The next test concerns SSTR2 Q102^2.63S. As to the kind of experiment: BRET-based Gi3 activation assay, SSTR2 Q102S. In kind it is cell-based. The note with it: HEK-293S.
The test system of another test is SSTR2 ECL2 mutants. As to the kind of experiment: BRET assays comparing SST14 and SST28 at ECL2 mutants. In kind it is cell-based. The note with it: HEK-293S; for behavior of SST14 versus SST28 across ECL2 mutants: all of the mutants tested.
Test [4] concerns SSTR2 ECL2+/4 (entire ECL2 from SSTR4). As to the kind of experiment: BRET-based Gi3 activation assay, SSTR2 ECL2+/4 chimera. In kind it is cell-based. The settings on record: ECL2+/4 vs ECL2/4, HEK-293S, n=3.
In the next test the test system is SSTR3 H192T. As to the kind of experiment: BRET-based Gi3 activation assay, SSTR3 H192T. The format is cell-based. The note with it: HEK-293S.
In the next test the test system is SSTR3 H192A. As to the kind of experiment: BRET-based Gi3 activation assay, SSTR3 H192A. In kind it is cell-based. The note with it: HEK-293S.
The subject of another test is SSTR1–5. The settings on record: cited from earlier work.

As for octreotide, the “Gi3 BRET activation response” value was “activates SSTR2 most potently” in the test on SSTR2; “almost no activity” with SSTR1; “reduced response” in the test on SSTR3; “almost no activity” in the test with SSTR4; “reduced response” in the test on SSTR5. Further, the “SSTR2 activation (effect of mutation)” value in [1] and in [2] was “substantially reduces SSTR2 activation” each time. Moreover, the figures for the “octreotide signaling (effect of mutation)” value with SSTR2 Q187M and in the test on SSTR2 N276^6.55Q were “enhances octreotide signaling” and “decreases octreotide signaling in a selective manner”, respectively. The “ligand recognition, effect of ECL swaps” value in [3] was “impaired ligand recognition of SST14 and octreotide to some degree”. Besides, in the test with SSTR2 Q102^2.63S, the “octreotide-induced G protein signaling (effect of mutation)” value is recorded as “selectively reduces octreotide-induced G protein signaling”.

As to “SST28: 28-residue somatostatin peptide (SANSNPAMAPRERKAGCKNFFWKTFTSC; ends and bridges not checked; cysteine pairing not given here)”, the “strength of SST28 relative to SST14” value with SSTR2 ECL2 mutants (across all of the ECL2 mutants tested) is on record as “slightly weaker binder than SST14 (less than an order of magnitude)”. In the test on SSTR2 ECL2 mutants, the “behavior of SST14 versus SST28 across ECL2 mutants” value is listed as “remarkably similar”.

On to “SST14: endogenous 14-residue somatostatin peptide (Cayman, 20809)”, for which the “Gi3 BRET activation response” value in the test with SSTR2, with SSTR1, with SSTR3, in the test on SSTR4 and in the test with SSTR5 was “comparable response” throughout. The “SSTR2 activation (effect of mutation)” value in test [1] and in test [2] was “substantially reduces SSTR2 activation” each time. Also, the “behavior of SST14 versus SST28 across ECL2 mutants” value with SSTR2 ECL2 mutants is reported as “remarkably similar”. Besides, the “impairment by ECL swaps, SST14 versus octreotide” value in test [3] (ECL swaps) is given as “far greater impairment for SST14 than octreotide”. Moreover, the “ligand recognition, effect of ECL swaps” value in test [3] is “impaired ligand recognition of SST14 and octreotide to some degree; also recorded: non-linear effect on SST14-induced signaling”. Also, the “SST14-induced signaling compared to the shorter SSTR4 ECL2 swap” value in test [4] is “improved SST14-induced signaling”. Further, the “SST14-stimulated G protein activation (effect of mutation)” value with SSTR3 H192T and with SSTR3 H192A was “deleterious to SST14-stimulated G protein activation” in each case.

Turning to lanreotide, the subtype selectivity result with SSTR1–5 is listed as “SSTR2-selective”.
